The record followed here is ChEMBL document CHEMBL1136174, “Synthesis and antimycobacterial activity of capuramycin analogues. Part 1: substitution of the azepan-2-one moiety of capuramycin” (Bioorg Med Chem Lett, 2003).

A word on the MIC: it is the lowest concentration that inhibits growth of the organism. A high value points to a need for much substance. By IC50 is commonly meant the point on the concentration scale where inhibition reaches its midpoint. Lower therefore signals greater potency in that assay.

≈ marks a conversion by molar mass, not a printed value.

Assay [1] has as its system Mycolicibacterium smegmatis. In words: Antimycobacterial activity against Mycobacterium smegmatis (SANK 75075). The assay is classed as functional.
Assay [2] has as its target T1, Phospho-N-acetylmuramoyl-pentapeptide-transferase (Escherichia coli K-12, UniProt P0A6W3).
T1 sequence (P0A6W3 whole entry): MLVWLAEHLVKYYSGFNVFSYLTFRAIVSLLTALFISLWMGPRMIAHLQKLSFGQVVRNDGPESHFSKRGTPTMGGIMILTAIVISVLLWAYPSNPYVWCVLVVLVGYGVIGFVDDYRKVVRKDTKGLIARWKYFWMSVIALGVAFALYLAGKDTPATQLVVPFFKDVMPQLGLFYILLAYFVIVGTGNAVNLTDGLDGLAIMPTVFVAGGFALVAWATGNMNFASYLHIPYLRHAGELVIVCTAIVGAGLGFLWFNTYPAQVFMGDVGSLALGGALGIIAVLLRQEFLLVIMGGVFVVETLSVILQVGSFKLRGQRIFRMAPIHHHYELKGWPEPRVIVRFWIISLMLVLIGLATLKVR
Kind of assay: Inhibitory activity against translocase I.

For the compound `CO[C@H]1[C@@H](O)[C@H](n2ccc(=O)[nH]c2=O)O[C@@H]1[C@@H](O[C@H]1OC(C(=O)Nc2ccc([N+](=O)[O-])cc2)=C[C@H](O)[C@@H]1O)C(N)=O`, 25 µg/mL (≈ 43.1 µM) was the least that counted as inhibitory in assay [1] (MIC). Also, in assay [2], half-maximal inhibition (IC50) required 69 nM.

In the case of `CO[C@H]1[C@@H](O)[C@H](n2ccc(=O)[nH]c2=O)O[C@@H]1[C@@H](O[C@H]1OC(C(=O)N[C@@H](C)c2ccccc2)=C[C@H](O)[C@@H]1O)C(N)=O`, in assay [1], the MIC came to 50 µg/mL (≈ 88.9 µM). The IC50 in assay [2] was 231 nM. On the same counts, the results for `CCCCNC(=O)C1=C[C@H](O)[C@H](O)[C@@H](O[C@@H](C(N)=O)[C@H]2O[C@@H](n3ccc(=O)[nH]c3=O)[C@H](O)[C@@H]2OC)O1` are 12.5 µg/mL (≈ 24.3 µM) and 544 nM.

In assay [1], `CO[C@H]1[C@@H](O)[C@H](n2ccc(=O)[nH]c2=O)O[C@@H]1[C@@H](O[C@H]1OC(C(=O)NCCc2ccccc2)=C[C@H](O)[C@@H]1O)C(N)=O` showed an MIC of 12.5 µg/mL (≈ 22.2 µM). Besides, in assay [2], half-maximal inhibition (IC50) was put at 37.3 nM. On the same counts, the results for `CO[C@H]1[C@@H](O)[C@H](n2ccc(=O)[nH]c2=O)O[C@@H]1[C@@H](O[C@H]1OC(C(=O)N(C)c2ccccc2)=C[C@H](O)[C@@H]1O)C(N)=O` are over 100 µg/mL and over 4560 nM. For `CO[C@H]1[C@@H](O)[C@H](n2ccc(=O)[nH]c2=O)O[C@@H]1[C@@H](O[C@H]1OC(C(=O)NCCCCO)=C[C@H](O)[C@@H]1O)C(N)=O` the same measures were over 100 µg/mL and 320 nM. On the same counts, the results for `CO[C@H]1[C@@H](O)[C@H](n2ccc(=O)[nH]c2=O)O[C@@H]1[C@@H](O[C@H]1OC(C(=O)Nc2ccc(C)cc2)=C[C@H](O)[C@@H]1O)C(N)=O` are 12.5 µg/mL (≈ 22.8 µM) and 23.7 nM. In turn, `CO[C@H]1[C@@H](O)[C@H](n2ccc(=O)[nH]c2=O)O[C@@H]1[C@@H](O[C@H]1OC(C(=O)NC2CCCCC2)=C[C@H](O)[C@@H]1O)C(N)=O` showed an MIC in assay [1] of 12.5 µg/mL (≈ 23.1 µM). This compound had an IC50 in assay [2] of 55.5 nM. For `CCCCCCCCCCCCCCNC(=O)C1=C[C@H](O)[C@H](O)[C@@H](O[C@@H](C(N)=O)[C@H]2O[C@@H](n3ccc(=O)[nH]c3=O)[C@H](O)[C@@H]2OC)O1` the same measures were over 50 µg/mL and over 3820 nM. For `CO[C@H]1[C@@H](O)[C@H](n2ccc(=O)[nH]c2=O)O[C@@H]1[C@@H](O[C@H]1OC(C(=O)NCc2ccc3c(c2)OCO3)=C[C@H](O)[C@@H]1O)C(N)=O` the same measures were 50 µg/mL (≈ 84.4 µM) and 338 nM. In assay [1], `COC(=O)C1=C[C@H](O)[C@H](O)[C@@H](O[C@@H](C(N)=O)[C@H]2O[C@@H](n3ccc(=O)[nH]c3=O)[C@H](O)[C@@H]2OC)O1` came in with an MIC of over 100 µg/mL. This compound gave an IC50 in assay [2] of 57 nM. On to `CO[C@H]1[C@@H](O)[C@H](n2ccc(=O)[nH]c2=O)O[C@@H]1[C@@H](O[C@H]1OC(C(=O)Nc2ccc(C(F)(F)F)cc2)=C[C@H](O)[C@@H]1O)C(N)=O`, for which the MIC in assay [1] came to 12.5 µg/mL (≈ 20.7 µM).

As for `CO[C@H]1[C@@H](O)[C@H](n2ccc(=O)[nH]c2=O)O[C@@H]1[C@@H](O[C@H]1OC(C(=O)NCCc2cccs2)=C[C@H](O)[C@@H]1O)C(N)=O`, in assay [1], the MIC was 25 µg/mL (≈ 44 µM). For the same compound, the IC50 in assay [2] is 22.9 nM.

The compound `CO[C@H]1[C@@H](O)[C@H](n2ccc(=O)[nH]c2=O)O[C@@H]1[C@@H](O[C@H]1OC(C(=O)Nc2cccc(F)c2F)=C[C@H](O)[C@@H]1O)C(N)=O` had a minimal inhibitory concentration (MIC) in assay [1] of 12.5 µg/mL (≈ 21.9 µM). The compound also had an IC50 in assay [2] of 22.8 nM. On the same counts, the results for `CO[C@H]1[C@@H](O)[C@H](n2ccc(=O)[nH]c2=O)O[C@@H]1[C@@H](O[C@H]1OC(C(=O)NCCc2ccc(F)cc2)=C[C@H](O)[C@@H]1O)C(N)=O` are 12.5 µg/mL (≈ 21.5 µM) and 37.9 nM. Turning to `CO[C@H]1[C@@H](O)[C@H](n2ccc(=O)[nH]c2=O)O[C@@H]1[C@@H](O[C@H]1OC(C(=O)NCc2ccc(C)cc2)=C[C@H](O)[C@@H]1O)C(N)=O`, inhibition of growth in assay [1] (MIC) required 50 µg/mL (≈ 88.9 µM). For the same compound, the IC50 in assay [2] was 2130 nM.

Take `CCOCCCNC(=O)C1=C[C@H](O)[C@H](O)[C@@H](O[C@@H](C(N)=O)[C@H]2O[C@@H](n3ccc(=O)[nH]c3=O)[C@H](O)[C@@H]2OC)O1`: the MIC in assay [1] is 100 µg/mL (≈ 184 µM). Also, the concentration for half-maximal inhibition (IC50) in assay [2] was 257 nM.

In turn, `CO[C@H]1[C@@H](O)[C@H](n2ccc(=O)[nH]c2=O)O[C@@H]1[C@@H](O[C@H]1OC(C(=O)NCc2ccccc2)=C[C@H](O)[C@@H]1O)C(N)=O` had a minimal inhibitory concentration (MIC) in assay [1] of 50 µg/mL (≈ 91.2 µM). This compound also showed an IC50 in assay [2] of 219 nM. For `COc1ccc(CCNC(=O)C2=C[C@H](O)[C@H](O)[C@@H](O[C@@H](C(N)=O)[C@H]3O[C@@H](n4ccc(=O)[nH]c4=O)[C@H](O)[C@@H]3OC)O2)cc1OC`, it took 50 µg/mL (≈ 80.3 µM) to inhibit growth in assay [1] (MIC). Besides, the IC50 in assay [2] was 40.2 nM. For `CO[C@H]1[C@@H](O)[C@H](n2ccc(=O)[nH]c2=O)O[C@@H]1[C@@H](O[C@H]1OC(C(=O)NCCc2ccc(Cl)cc2Cl)=C[C@H](O)[C@@H]1O)C(N)=O` the same measures were 50 µg/mL (≈ 79.2 µM) and 30.1 nM. For `CO[C@H]1[C@@H](O)[C@H](n2ccc(=O)[nH]c2=O)O[C@@H]1[C@@H](O[C@H]1OC(C(=O)NCCCSC)=C[C@H](O)[C@@H]1O)C(N)=O`, the MIC in assay [1] came to 50 µg/mL (≈ 91.5 µM). In assay [2], this compound had an IC50 of 128 nM.

In turn, `CCCCN(C)C(=O)C1=C[C@H](O)[C@H](O)[C@@H](O[C@@H](C(N)=O)[C@H]2O[C@@H](n3ccc(=O)[nH]c3=O)[C@H](O)[C@@H]2OC)O1` registered an MIC in assay [1] of over 100 µg/mL. This compound also yielded an IC50 in assay [2] of over 4730 nM. `CCCCCCc1ccc(NC(=O)C2=C[C@H](O)[C@H](O)[C@@H](O[C@@H](C(N)=O)[C@H]3O[C@@H](n4ccc(=O)[nH]c4=O)[C@H](O)[C@@H]3OC)O2)cc1` came in with an MIC in assay [1] of 12.5 µg/mL (≈ 20.2 µM). This compound showed an IC50 in assay [2] of 259 nM. For `CO[C@H]1[C@@H](O)[C@H](n2ccc(=O)[nH]c2=O)O[C@@H]1[C@@H](O[C@H]1OC(C(=O)NCc2ccc3ccccc3c2)=C[C@H](O)[C@@H]1O)C(N)=O` the same measures were 25 µg/mL (≈ 41.8 µM) and 184 nM. For `CO[C@H]1[C@@H](O)[C@H](n2ccc(=O)[nH]c2=O)O[C@@H]1[C@@H](O[C@H]1OC(C(=O)Nc2ccc(C)cc2C)=C[C@H](O)[C@@H]1O)C(N)=O` the same measures were 25 µg/mL (≈ 44.4 µM) and 107 nM. On the same counts, the results for `COc1cccc(CCNC(=O)C2=C[C@H](O)[C@H](O)[C@@H](O[C@@H](C(N)=O)[C@H]3O[C@@H](n4ccc(=O)[nH]c4=O)[C@H](O)[C@@H]3OC)O2)c1` are 50 µg/mL (≈ 84.4 µM) and 32.1 nM. Regarding `CO[C@H]1[C@@H](O)[C@H](n2ccc(=O)[nH]c2=O)O[C@@H]1[C@@H](O[C@H]1OC(C(=O)NCCN)=C[C@H](O)[C@@H]1O)C(N)=O`, the minimum inhibitory concentration (MIC) in assay [1] worked out at 100 µg/mL (≈ 199 µM). This compound also showed an IC50 in assay [2] of 1200 nM. Take `CO[C@H]1[C@@H](O)[C@H](n2ccc(=O)[nH]c2=O)O[C@@H]1[C@@H](O[C@H]1OC(C(=O)NCCO)=C[C@H](O)[C@@H]1O)C(N)=O`: the MIC in assay [1] is over 100 µg/mL. This compound had an IC50 in assay [2] of 179 nM. `CO[C@H]1[C@@H](O)[C@H](n2ccc(=O)[nH]c2=O)O[C@@H]1[C@@H](O[C@H]1OC(C(=O)NCCc2ccccc2Cl)=C[C@H](O)[C@@H]1O)C(N)=O` had an MIC in assay [1] of 25 µg/mL (≈ 41.9 µM). The same compound gave an IC50 in assay [2] of 46.9 nM. On the same counts, the results for `CO[C@H]1[C@@H](O)[C@H](n2ccc(=O)[nH]c2=O)O[C@@H]1[C@@H](O[C@H]1OC(C(=O)NCC(c2ccccc2)c2ccccc2)=C[C@H](O)[C@@H]1O)C(N)=O` are over 100 µg/mL and 204 nM.
